The results in this text go back to ChEMBL document CHEMBL1208707, “T-type calcium channel blockers: spiro-piperidine azetidines and azetidinones-optimization, design and synthesis” (Bioorg Med Chem Lett, 2010).

The structures appear in SMILES notation. pIC50: −log10 of the molar value.

Series [1] deals with Transient receptor potential cation channel subfamily V member 1 (Homo sapiens) (UniProt Q8NER1). Kind of series: Inhibition of TRPV1 expressed in HEK293 assessed as capsaicin activation cells at 3.3 ug/mL by FLIPR assay. Format: cell-based.
Sequence of Transient receptor potential cation channel subfamily V member 1 (Homo sapiens) (Q8NER1 whole entry): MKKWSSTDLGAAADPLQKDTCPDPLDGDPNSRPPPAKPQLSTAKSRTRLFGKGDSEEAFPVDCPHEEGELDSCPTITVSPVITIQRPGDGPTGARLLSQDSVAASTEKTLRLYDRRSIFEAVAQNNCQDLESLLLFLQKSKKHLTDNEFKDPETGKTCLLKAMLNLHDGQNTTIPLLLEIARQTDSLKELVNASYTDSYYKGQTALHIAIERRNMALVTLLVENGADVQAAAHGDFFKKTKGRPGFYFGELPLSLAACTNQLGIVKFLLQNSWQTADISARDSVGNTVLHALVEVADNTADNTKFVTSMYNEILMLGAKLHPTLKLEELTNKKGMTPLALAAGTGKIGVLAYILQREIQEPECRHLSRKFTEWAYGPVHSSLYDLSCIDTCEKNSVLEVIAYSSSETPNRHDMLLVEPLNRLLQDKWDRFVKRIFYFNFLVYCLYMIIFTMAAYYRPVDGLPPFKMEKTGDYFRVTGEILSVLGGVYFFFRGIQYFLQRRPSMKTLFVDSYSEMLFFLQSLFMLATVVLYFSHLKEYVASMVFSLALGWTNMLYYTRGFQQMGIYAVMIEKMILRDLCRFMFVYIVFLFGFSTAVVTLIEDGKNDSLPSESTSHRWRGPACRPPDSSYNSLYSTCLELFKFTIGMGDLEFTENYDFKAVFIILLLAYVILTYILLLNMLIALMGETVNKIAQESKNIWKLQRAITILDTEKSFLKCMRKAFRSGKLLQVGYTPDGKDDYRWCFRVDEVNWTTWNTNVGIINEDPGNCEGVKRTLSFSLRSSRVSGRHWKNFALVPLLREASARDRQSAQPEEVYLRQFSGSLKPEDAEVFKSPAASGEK
In series [2] the target is T1, Voltage-dependent T-type calcium channel subunit alpha-1H (Homo sapiens, UniProt O95180). Kind of series: Inhibition of human CaV3.2 expressed in HEK293 cells at -100 mV membrane potential by Ionworks HT assay. Format: cell-based.
T1 sequence (O95180 whole entry): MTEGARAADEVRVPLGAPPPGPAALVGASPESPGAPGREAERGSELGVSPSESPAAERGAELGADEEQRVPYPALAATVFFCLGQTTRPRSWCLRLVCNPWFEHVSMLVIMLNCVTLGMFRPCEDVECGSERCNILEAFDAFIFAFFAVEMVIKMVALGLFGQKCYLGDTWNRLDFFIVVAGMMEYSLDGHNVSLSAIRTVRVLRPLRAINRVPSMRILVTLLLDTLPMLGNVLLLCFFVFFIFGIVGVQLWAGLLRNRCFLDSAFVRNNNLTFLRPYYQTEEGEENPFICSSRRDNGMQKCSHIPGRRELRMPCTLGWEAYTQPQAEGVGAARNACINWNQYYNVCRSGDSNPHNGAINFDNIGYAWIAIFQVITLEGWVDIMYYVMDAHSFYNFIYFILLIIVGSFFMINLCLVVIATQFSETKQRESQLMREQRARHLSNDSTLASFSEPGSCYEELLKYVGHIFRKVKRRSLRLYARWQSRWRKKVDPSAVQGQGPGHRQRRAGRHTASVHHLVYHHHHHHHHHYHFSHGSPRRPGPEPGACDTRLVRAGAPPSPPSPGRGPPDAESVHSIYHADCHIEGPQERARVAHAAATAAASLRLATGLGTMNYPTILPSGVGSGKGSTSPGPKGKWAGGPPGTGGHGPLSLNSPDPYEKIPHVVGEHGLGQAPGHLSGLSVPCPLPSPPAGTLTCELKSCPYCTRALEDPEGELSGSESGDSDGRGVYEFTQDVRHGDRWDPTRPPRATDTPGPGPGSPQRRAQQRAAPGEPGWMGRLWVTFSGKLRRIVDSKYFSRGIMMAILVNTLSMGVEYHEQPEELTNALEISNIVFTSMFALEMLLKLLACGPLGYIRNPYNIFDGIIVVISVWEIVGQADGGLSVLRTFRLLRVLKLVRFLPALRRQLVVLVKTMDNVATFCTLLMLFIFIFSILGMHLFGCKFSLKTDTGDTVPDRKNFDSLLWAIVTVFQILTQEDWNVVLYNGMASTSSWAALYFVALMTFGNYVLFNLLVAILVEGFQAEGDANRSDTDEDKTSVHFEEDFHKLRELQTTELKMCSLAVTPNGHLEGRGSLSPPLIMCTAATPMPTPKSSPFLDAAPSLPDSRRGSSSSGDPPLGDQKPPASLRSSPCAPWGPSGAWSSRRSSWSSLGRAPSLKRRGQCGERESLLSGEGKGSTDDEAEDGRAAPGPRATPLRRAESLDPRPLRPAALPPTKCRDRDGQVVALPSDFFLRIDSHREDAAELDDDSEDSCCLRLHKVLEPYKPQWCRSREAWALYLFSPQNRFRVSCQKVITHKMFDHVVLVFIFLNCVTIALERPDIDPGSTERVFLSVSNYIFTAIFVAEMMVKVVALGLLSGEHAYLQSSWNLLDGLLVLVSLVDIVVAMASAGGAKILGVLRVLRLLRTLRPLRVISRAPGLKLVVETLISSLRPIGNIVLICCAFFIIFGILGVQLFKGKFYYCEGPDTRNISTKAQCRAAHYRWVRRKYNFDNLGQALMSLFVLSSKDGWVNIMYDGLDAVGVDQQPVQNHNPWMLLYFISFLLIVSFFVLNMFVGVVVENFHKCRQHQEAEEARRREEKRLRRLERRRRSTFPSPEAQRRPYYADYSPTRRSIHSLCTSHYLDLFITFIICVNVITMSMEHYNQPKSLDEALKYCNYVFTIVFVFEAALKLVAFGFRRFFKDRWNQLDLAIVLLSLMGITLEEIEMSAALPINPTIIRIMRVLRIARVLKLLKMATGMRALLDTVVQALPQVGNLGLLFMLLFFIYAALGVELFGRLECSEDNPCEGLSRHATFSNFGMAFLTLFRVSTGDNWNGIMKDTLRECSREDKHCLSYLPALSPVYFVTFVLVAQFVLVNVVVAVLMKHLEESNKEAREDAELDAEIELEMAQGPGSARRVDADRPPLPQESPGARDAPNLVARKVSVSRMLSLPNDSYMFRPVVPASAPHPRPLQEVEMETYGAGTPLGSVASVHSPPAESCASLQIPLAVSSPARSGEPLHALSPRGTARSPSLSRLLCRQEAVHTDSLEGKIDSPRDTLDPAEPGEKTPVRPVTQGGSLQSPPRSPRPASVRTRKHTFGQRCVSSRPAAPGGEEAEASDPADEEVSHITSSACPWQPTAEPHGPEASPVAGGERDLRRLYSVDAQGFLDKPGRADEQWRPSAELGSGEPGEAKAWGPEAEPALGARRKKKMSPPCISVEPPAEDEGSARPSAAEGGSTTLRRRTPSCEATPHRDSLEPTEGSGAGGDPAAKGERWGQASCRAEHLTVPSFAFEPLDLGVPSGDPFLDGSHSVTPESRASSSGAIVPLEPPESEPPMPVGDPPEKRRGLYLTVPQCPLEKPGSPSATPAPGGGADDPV
Series [3] deals with T1, Voltage-dependent T-type calcium channel subunit alpha-1H. Kind of series: Inhibition of human CaV3.2 expressed in HEK293 cells at -100 mV membrane potential by whole cell path clamp method. Format: cell-based.
A short description of series [4]: Protein binding in rat plasma. The format is ADME, cell-free. The settings on record: read-out: PPB (converted).

For orientation: inhibition means the drop in the measured response relative to a control, in per cent. `O=C(Nc1ccc(F)c(F)c1)N1CCC2(CC1)C(=O)N(c1ccc(F)c(Cl)c1)C2c1ccccn1` (stereo in doubt; 40b) [listing 1 of 2 here]: the inhibition in series [1] worked out at 39%. One may read the pIC50 as the IC50 on a negative log10 scale, so that one unit is a factor of ten. As for `CC[C@H](C)[C@H](NC(=O)N1CCC2(CC1)CN(C1CC1)C2c1ccc(Cl)cc1)C(=O)OC` (mixture of isomers), the pIC50 in series [2] is 6.49; in series [3], 6.15. For the compound `CC[C@H](C)[C@H](NC(=O)N1CCC2(CC1)CN(c1cccc(F)c1)C2c1ccc(Cl)cc1)C(=O)OC` (stereo in doubt; 22b) [listing 1 of 2 here], the inhibition in series [1] came to 12.5%. Regarding `C[C@H](NC(=O)N1CCC2(CC1)C(=O)N(c1cccc(F)c1)C2c1ccc(Cl)cc1)c1ccc(F)cc1` (stereo not given in full), the fraction unbound in series [4] is 0.001. In series [1], the inhibition was 2.4%. As to `CC[C@H](C)[C@H](NC(=O)N1CCC2(CC1)CN(c1cccc(F)c1)C2c1ccc(Cl)cc1)C(=O)OC` (stereo in doubt; 22a) [listing 1 of 2 here], in series [1], the inhibition was found to be 8.5%. For the compound `N#Cc1cccc(NC(=O)N2CCC3(CC2)C(=O)N(c2cccc(Cl)c2)C3c2ccccn2)c1` (stereo in doubt; 43b), the pIC50 in series [2] was 6.07. In addition, in series [4], the fraction unbound was 0.012. On the same counts, the results for `O=C(Nc1ccc(F)c(F)c1)N1CCC2(CC1)C(=O)N(c1cccc(Cl)c1)C2c1cccc[n+]1[O-]` (stereo in doubt; form 1) are 6.16 and 0.066. In the case of `CC[C@H](C)[C@H](NC(=O)N1CCC2(CC1)C(=O)N(C)C2c1ccc(Cl)cc1)C(=O)OC` (mixture of isomers), the pIC50 in series [2] was 6.10. Besides, in series [1], the inhibition came to 3.12%. Turning to `CC[C@H](C)[C@H](NC(=O)N1CCC2(CC1)CN(c1cccc(F)c1)C2c1ccc(Cl)cc1)C(=O)OC` (stereo in doubt; 22a) [listing 2 of 2 here], the pIC50 in series [2] is 6.84.

On to `O=C(Nc1cc(F)cc(F)c1)N1CCC2(CC1)C(=O)N(c1ccc(F)c(Cl)c1)C2c1ccccn1` (stereo in doubt; 39b), for which the pIC50 in series [2] was 6.75. On the same count and under the same terms, under `O=C(Nc1cc(F)cc(F)c1)N1CCC2(CC1)CN(c1cccc(F)c1)C2c1ccc(Cl)cc1` (stereo in doubt; 35b) [listing 1 of 2 here] stands 5.49. In the case of `O=C(Nc1cc(F)cc(F)c1)N1CCC2(CC1)C(=O)N(c1cccc(F)c1)C2c1ccc(Cl)cc1` (stereo in doubt; 36a) [listing 1 of 2 here], the inhibition in series [1] amounted to 19.3%. Still for that read-out and setting: then `O=C(Nc1cc(F)cc(F)c1)N1CCC2(CC1)C(=O)N(c1cccc(F)c1)C2c1ccc(Cl)cc1` (stereo in doubt; 36b), with 6.79%. In the case of `CC[C@H](C)[C@H](NC(=O)N1CCC2(CC1)C(=O)N(c1cccc(F)c1)C2c1ccc(Cl)cc1)C(=O)OC` (stereo in doubt; 23a) [listing 1 of 2 here], the pIC50 is 7.35 in series [2] and 6.96 in series [3]. For `CCC(C)NC(=O)N1CCC2(CC1)C(=O)N(c1cccc(F)c1)C2c1ccc(Cl)cc1` (stereo not given), the pIC50 in series [2] was 5.90. Further, in series [1], the inhibition was 5.2%.

As to `O=C(Nc1cc(F)cc(F)c1)N1CCC2(CC1)C(=O)N(C1CC1)C2c1ccc(Cl)cc1` (racemic), the pIC50 in series [2] is 5.65. Besides, the inhibition in series [1] was 34.2%.

Turning to `CC[C@H](C)[C@H](NC(=O)N1CCC2(CC1)CN(C(C)C)C2c1ccc(Cl)cc1)C(=O)OC` (stereo in doubt; 2), the inhibition in series [1] was determined as 87.1%.

For `O=C(Nc1ccc(F)c(F)c1)N1CCC2(CC1)C(=O)N(c1cccc(Cl)c1)C2c1cccc[n+]1[O-]` (stereo in doubt; form 2), the pIC50 in series [2] is 5.82. Consider `O=C(Nc1cc(F)cc(F)c1)N1CCC2(CC1)C(=O)N(c1cncc(Cl)c1)C2c1ccccn1` (racemic), for which the inhibition in series [1] came out at 6.7%. Take `CC(C)CN1CC2(CCN(C(=O)Nc3cc(F)cc(F)c3)CC2)C1c1ccc(Cl)cc1` (racemic): in series [2], the pIC50 was 6.75. The inhibition in series [1] was determined as 53%.

On to `O=C(Nc1cccc(C(F)(F)F)c1)N1CCC2(CC1)C(=O)N(c1ccc(F)c(F)c1)C2c1ccccn1` (stereo in doubt; 41a), for which, in series [2], the pIC50 was 7.77. Regarding `CN1CC2(CCN(C(=O)Nc3cc(F)cc(F)c3)CC2)C1c1ccc(Cl)cc1` (racemic), the negative logarithm of the IC50 (pIC50) in series [2] is 6.67. Besides, the inhibition in series [1] came to 25%. For `CC(C)N1CC2(CCN(C(=O)Nc3cc(F)cc(F)c3)CC2)C1c1ccc(F)cc1` (racemic), the pIC50 was 6.76 in series [2] and 6.00 in series [3]. In series [1], the inhibition turned out to be 46.5%. Consider `O=C(Nc1cc(F)cc(F)c1)N1CCC2(CC1)CN(c1cccc(F)c1)C2c1ccc(Cl)cc1` (stereo in doubt; 35b) [listing 2 of 2 here], for which the inhibition in series [1] was 30.1%.

Take `N#Cc1cccc(NC(=O)N2CCC3(CC2)C(=O)N(c2cccc(F)c2)C3c2ccc(Cl)cc2)c1` (stereo in doubt; 37b) [listing 1 of 2 here]: the pIC50 in series [2] was 5.97. `COC(=O)[C@H](CO)NC(=O)N1CCC2(CC1)C(=O)N(c1cccc(F)c1)C2c1ccc(Cl)cc1` (stereo not given in full): in series [2], the pIC50 is 5.48. Further, the inhibition in series [1] worked out at 6%. For the compound `CC[C@H](C)[C@H](NC(=O)N1CCC2(CC1)C(=O)N(c1cccc(F)c1)C2c1ccc(Cl)cc1)C(=O)NC` (stereo not given in full), in series [1], the inhibition was 4.8%.

Consider `O=C(Nc1cc(F)cc(F)c1)N1CCC2(CC1)C(=O)N(c1cccc(Cl)c1)C2c1ccccn1` (stereo in doubt; 44a), for which, in series [1], the inhibition stood at 38%. As to `O=C(Nc1cc(F)cc(F)c1)N1CCC2(CC1)C(=O)N(c1cccc(F)c1)C2c1ccc(Cl)cc1` (stereo in doubt; 36a) [listing 2 of 2 here], the pIC50 in series [2] is 6.23. With `CC[C@H](C)[C@H](NC(=O)N1CCC2(CC1)CN(C(C)C)C2c1ccc(Cl)cc1)C(=O)OC` (stereo in doubt; 2b), the pIC50 in series [2] was 6.13; in series [3], 5.50. In the case of `CC[C@H](C)[C@H](NC(=O)N1CCC2(CC1)C(=O)N(c1cccc(F)c1)C2c1ccc(Cl)cc1)C(=O)OC(C)C` (stereo not given in full), the inhibition in series [1] is 18%. Turning to `O=C1N(c2ccc(F)c(Cl)c2)C(c2ccccn2)C12CCN(c1nc3cc(F)c(C(F)(F)F)cc3[nH]1)CC2` (stereo in doubt; 52b), the pIC50 in series [2] was 7.51; in series [3] it was 6.97. Take `O=C(Nc1cc(F)cc(F)c1)N1CCC2(CC1)CN(c1cccc(F)c1)C2c1ccc(Cl)cc1` (stereo in doubt; 35a) [listing 1 of 2 here]: the inhibition in series [1] is 6.22%. On the same count and under the same terms, then `N#Cc1cccc(NC(=O)N2CCC3(CC2)C(=O)N(c2cccc(F)c2)C3c2ccc(Cl)cc2)c1` (stereo in doubt; 37b) [listing 2 of 2 here], with 12.7%; and `N#Cc1cccc(NC(=O)N2CCC3(CC2)C(=O)N(c2cccc(F)c2)C3c2ccc(Cl)cc2)c1` (stereo in doubt; 37a), with 4.79%. On to `CC[C@H](C)[C@H](NC(=O)N1CCC2(CC1)CN(C(C)C)C2c1ccc(F)cc1)C(=O)OC` (mixture of isomers), for which, in series [2], the pIC50 was 6.59. For the same compound, the inhibition in series [1] turned out to be 13.4%. Regarding `O=C1N(c2cccc(Cl)c2)C(c2ccccn2)C12CCN(c1nc3cc(F)c(C(F)(F)F)cc3[nH]1)CC2` (stereo not given), the pIC50 in series [2] is 7.36; in series [3] it was 7.20. The inhibition in series [1] stood at 37.9%. Consider `O=C(Nc1cc(F)cc(F)c1)N1CCC2(CC1)CN(C1CC1)C2c1ccc(Cl)cc1` (racemic), for which the pIC50 in series [2] is 6.40. For the same compound, in series [4], the fraction unbound was 0.002. In the case of `CC[C@H](C)[C@H](NC(=O)N1CCC2(CC1)CN(C)C2c1ccc(Cl)cc1)C(=O)OC` (mixture of isomers), the pIC50 in series [2] is 6.39. Also, the inhibition in series [1] turned out to be 25.2%. In the case of `CC[C@H](C)[C@H](NC(=O)N1CCC2(CC1)C(=O)N(c1cccc(F)c1)C2c1ccc(Cl)cc1)C(=O)OC` (stereo in doubt; 23a) [listing 2 of 2 here], the inhibition in series [1] was found to be 6.18%.

On to `O=C(Nc1cc(F)cc(F)c1)N1CCC2(CC1)CN(c1ccc(F)c(Cl)c1)C2c1ccccn1` (stereo in doubt; 38b), for which the pIC50 in series [2] is 6.54. Besides, the fraction unbound in series [4] is 0.001.

On to `O=C(Nc1ccc(F)c(F)c1)N1CCC2(CC1)C(=O)N(c1ccc(F)c(Cl)c1)C2c1ccccn1` (stereo in doubt; 40b) [listing 2 of 2 here], for which, in series [2], the pIC50 was 6.40. As for `CN1CC2(CCN(C(=O)Nc3cc(F)cc(F)c3)CC2)C1c1ccc(F)cc1` (racemic), the pIC50 in series [2] was 6.39. Further, the fraction unbound in series [4] was 0.05. The inhibition in series [1] turned out to be 21.8%. As to `O=C(Nc1ccc(F)c(F)c1)N1CCC2(CC1)C(=O)N(c1cccc(Cl)c1)C2c1ccccn1` (stereo in doubt; 42b), the inhibition in series [1] came to 89%. In the case of `O=C(Nc1ccc(F)c(F)c1)N1CCC2(CC1)C(=O)N(c1ccc(F)c(Cl)c1)C2c1ccccn1` (stereo in doubt; 40a), the inhibition in series [1] came to 48%. In the case of `N#Cc1cccc(N2C(=O)C3(CCN(C(=O)Nc4cc(F)cc(F)c4)CC3)C2c2ccccn2)c1` (stereo not given), in series [3], the pIC50 is 4.71. Regarding `CC[C@H](C)[C@H](NC(=O)N1CCC2(CC1)CN(c1cccc(F)c1)C2c1ccc(Cl)cc1)C(=O)OC` (stereo in doubt; 22b) [listing 2 of 2 here], in series [2], the pIC50 is 5.49. Turning to `CC[C@H](C)[C@H](NC(=O)N1CCC2(CC1)C(=O)N(c1cccc(F)c1)C2c1ccc(Cl)cc1)C(=O)OC#N` (stereo not given in full), the results for the pIC50 in series [2] and in series [3] were 7.46 and 4.77, respectively. Regarding `N#Cc1cccc(N2C(=O)C3(CCN(C(=O)Nc4cc(F)cc(F)c4)CC3)C2c2ccccn2)c1` (racemic), the pIC50 in series [2] is 5.62. Consider `CC[C@H](C)[C@H](NC(=O)N1CCC2(CC1)CN(C(C)C)C2c1ccc(Cl)cc1)C(=O)OC` (stereo in doubt; 2a), for which the figures for the pIC50 in series [2] and in series [3] were 6.94 and 6.91, respectively.

As to `N#Cc1cccc(NC(=O)N2CCC3(CC2)C(=O)N(c2cccc(Cl)c2)C3c2ccccn2)c1` (stereo in doubt; 43a), in series [1], the inhibition was 30%. Consider `O=C(Nc1cc(F)cc(F)c1)N1CCC2(CC1)CN(c1cccc(F)c1)C2c1ccc(Cl)cc1` (stereo in doubt; 35a) [listing 2 of 2 here], for which, in series [2], the pIC50 is 5.46. Regarding `COC(=O)[C@H](COC(C)(C)C)NC(=O)N1CCC2(CC1)C(=O)N(c1cccc(F)c1)C2c1ccc(Cl)cc1` (stereo not given in full), the inhibition in series [1] turned out to be 4.4%. Still for that read-out and setting: then `CC[C@H](C)[C@H](NC(=O)N1CCC2(CC1)C(=O)N(c1cccc(F)c1)C2c1ccc(Cl)cc1)C(=O)OC` (stereo in doubt; 23b) [listing 1 of 2 here], with 8.79%. With `CC[C@H](C)[C@H](NC(=O)N1CCC2(CC1)C(=O)N(c1cccc(F)c1)C2c1ccc(Cl)cc1)C(=O)OC` (stereo in doubt; 23b) [listing 2 of 2 here], the pIC50 in series [2] is 6.06.
